Laboratory results taken from PubChem BioAssay (NCI).
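At the GI50, growth is halved. TGI: total growth inhibition.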

Key:
Assay in all cases: NCI tumour cell line growth inhibition, 384-well format
LOX IMVI melanoma = test system: LOX IMVI melanoma
M14 melanoma = test system: M14 melanoma
UO-31 renal = test system: UO-31 renal
ACHN renal = test system: ACHN renal
NCI-H226 lung = test system: NCI-H226 lung
U251 glioblastoma = test system: U251 glioblastoma
MOLT-4 leukemia = test system: MOLT-4 leukemia
KM12 colon = test system: KM12 colon
HS 578T breast = test system: HS 578T breast
SNB-75 CNS = test system: SNB-75 CNS
CAKI-1 renal = test system: CAKI-1 renal
HT29 colon = test system: HT29 colon
RPMI-8226 leukemia = test system: RPMI-8226 leukemia
A498 renal = test system: A498 renal
HCC-2998 colon = test system: HCC-2998 colon
T-47D breast = test system: T-47D breast
RXF 393 renal = test system: RXF 393 renal
SK-MEL-5 melanoma = test system: SK-MEL-5 melanoma
NCI-H23 lung = test system: NCI-H23 lung
OVCAR-5 ovarian = test system: OVCAR-5 ovarian
SF-539 CNS = test system: SF-539 CNS
NCI-H522 lung = test system: NCI-H522 lung
MDA-MB-468 breast = test system: MDA-MB-468 breast
SK-OV-3 ovarian = test system: SK-OV-3 ovarian
MCF7 breast = test system: MCF7 breast
SR leukemia = test system: SR leukemia
OVCAR-3 ovarian = test system: OVCAR-3 ovarian
HOP-62 NSCLC = test system: HOP-62 NSCLC
NCI-H322M lung = test system: NCI-H322M lung
UACC-62 melanoma = test system: UACC-62 melanoma
DU-145 prostate = test system: DU-145 prostate
HL-60(TB) leukemia = test system: HL-60(TB) leukemia
786-0 renal = test system: 786-0 renal
NCI-H460 NSCLC = test system: NCI-H460 NSCLC
MDA-MB-231 breast = test system: MDA-MB-231 breast
PC-3 prostate = test system: PC-3 prostate
A549 NSCLC = test system: A549 NSCLC
NCI/ADR-RES ovarian = test system: NCI/ADR-RES ovarian
SF-295 CNS = test system: SF-295 CNS
SN12C renal = test system: SN12C renal
OVCAR-4 ovarian = test system: OVCAR-4 ovarian
IGROV1 ovarian = test system: IGROV1 ovarian
HCT-116 colon = test system: HCT-116 colon
BT-549 breast = test system: BT-549 breast
HCT-15 colon = test system: HCT-15 colon
OVCAR-8 ovarian = test system: OVCAR-8 ovarian
MDA-MB-435 melanoma = test system: MDA-MB-435 melanoma
EKVX NSCLC = test system: EKVX NSCLC
SNB-19 CNS = test system: SNB-19 CNS
HOP-92 NSCLC = test system: HOP-92 NSCLC
MALME-3M melanoma = test system: MALME-3M melanoma
COLO 205 colon = test system: COLO 205 colon
SK-MEL-28 melanoma = test system: SK-MEL-28 melanoma

In the case of `Cc1c(C(=O)Nc2ccc(N3C[C@@H](C)O[C@@H](C)C3)nc2)cccc1-c1ccc(OC(F)(F)F)cc1`, the GI50 (LOX IMVI melanoma) is reported as 7.94 µM, the TGI (LOX IMVI melanoma) is reported as 13.8 µM and the GI50 (M14 melanoma) is reported as 16 µM. It also gave a TGI (M14 melanoma) of 30.4 µM, a GI50 (UO-31 renal) greater than 40.2 µM and a TGI (UO-31 renal) greater than 54.6 µM. It also gave a GI50 (ACHN renal) of 11.4 µM, a TGI (ACHN renal) of 24.8 µM and a GI50 (NCI-H226 lung) of 6.16 µM. For the same compound, the TGI (NCI-H226 lung) was 12.8 µM, the GI50 (U251 glioblastoma) was greater than 31.6 µM and the TGI (U251 glioblastoma) was greater than 31.6 µM. It also gave a GI50 (MOLT-4 leukemia) of 4.21 µM, a TGI (MOLT-4 leukemia) of 15.4 µM and a GI50 (KM12 colon) of 12 µM. For the same compound, the TGI (KM12 colon) was 16.6 µM, the GI50 (HS 578T breast) was 8.01 µM and the TGI (HS 578T breast) was 20.9 µM. It also gave a GI50 (SNB-75 CNS) of 5.67 µM, a GI50 (CAKI-1 renal) of 14.7 µM and a TGI (CAKI-1 renal) of 28 µM. For the same compound, the GI50 (HT29 colon) was 3.55 µM, the TGI (HT29 colon) was 5.04 µM and the GI50 (RPMI-8226 leukemia) was 6.67 µM. For the same compound, the TGI (RPMI-8226 leukemia) was 12.7 µM, the GI50 (A498 renal) was 7 µM and the TGI (A498 renal) was 12.7 µM. The GI50 (HCC-2998 colon) was 11.9 µM, the TGI (HCC-2998 colon) was 16.5 µM and the GI50 (T-47D breast) was 1.47 µM. The TGI (T-47D breast) was 3.43 µM, the GI50 (RXF 393 renal) was 4.85 µM and the TGI (RXF 393 renal) was 8.09 µM. For the same compound, the GI50 (SK-MEL-5 melanoma) was 7.06 µM, the TGI (SK-MEL-5 melanoma) was 13.1 µM and the GI50 (NCI-H23 lung) was 7.39 µM. For the same compound, the TGI (NCI-H23 lung) was 13.5 µM, the GI50 (OVCAR-5 ovarian) was 16.6 µM and the TGI (OVCAR-5 ovarian) was 30.7 µM. It also gave a GI50 (SF-539 CNS) of 11.2 µM, a TGI (SF-539 CNS) of 18.1 µM and a GI50 (NCI-H522 lung) of 1.9 µM. It also gave a TGI (NCI-H522 lung) of 3.79 µM, a GI50 (MDA-MB-468 breast) of 5.63 µM and a TGI (MDA-MB-468 breast) of 11.3 µM. For the same compound, the GI50 (SK-OV-3 ovarian) was 3.89 µM, the TGI (SK-OV-3 ovarian) was 5.34 µM and the GI50 (MCF7 breast) was 7.5 µM. It also gave a TGI (MCF7 breast) of 13.7 µM, a GI50 (SR leukemia) of 5.32 µM and a TGI (SR leukemia) of 13.4 µM. It also gave a GI50 (OVCAR-3 ovarian) of 10.6 µM, a TGI (OVCAR-3 ovarian) of 15.3 µM and a GI50 (HOP-62 NSCLC) of 2.23 µM. For the same compound, the TGI (HOP-62 NSCLC) was 4.12 µM, the GI50 (NCI-H322M lung) was 13.3 µM and the TGI (NCI-H322M lung) was 26.3 µM. For the same compound, the GI50 (UACC-62 melanoma) was 13 µM, the TGI (UACC-62 melanoma) was 17.5 µM and the GI50 (DU-145 prostate) was 8.5 µM. The TGI (DU-145 prostate) was 20.9 µM, the GI50 (HL-60(TB) leukemia) was 6.8 µM and the TGI (HL-60(TB) leukemia) was 12.7 µM. It also gave a GI50 (786-0 renal) of 6.53 µM, a TGI (786-0 renal) of 17.5 µM and a GI50 (NCI-H460 NSCLC) of 9.46 µM. It also gave a TGI (NCI-H460 NSCLC) of 14.5 µM, a GI50 (MDA-MB-231 breast) of 3.63 µM and a TGI (MDA-MB-231 breast) of 14.8 µM. For the same compound, the GI50 (PC-3 prostate) was 12.4 µM, the TGI (PC-3 prostate) was 25 µM and the GI50 (A549 NSCLC) was 6.24 µM. For the same compound, the TGI (A549 NSCLC) was 11.7 µM, the GI50 (NCI/ADR-RES ovarian) was 5.04 µM and the TGI (NCI/ADR-RES ovarian) was 18 µM. The GI50 (SF-295 CNS) was 8.16 µM, the GI50 (SN12C renal) was 13.7 µM and the TGI (SN12C renal) was 26.8 µM. For the same compound, the GI50 (OVCAR-4 ovarian) was 4.99 µM, the TGI (OVCAR-4 ovarian) was 14.9 µM and the GI50 (IGROV1 ovarian) was 12.3 µM. For the same compound, the TGI (IGROV1 ovarian) was 25.4 µM, the GI50 (HCT-116 colon) was 6.16 µM and the TGI (HCT-116 colon) was 17.8 µM. For the same compound, the GI50 (BT-549 breast) was 8.61 µM, the TGI (BT-549 breast) was 22.1 µM and the GI50 (HCT-15 colon) was 7.15 µM. It also gave a TGI (HCT-15 colon) of 13.3 µM, a GI50 (OVCAR-8 ovarian) of 10.6 µM and a TGI (OVCAR-8 ovarian) of 15.3 µM. The GI50 (MDA-MB-435 melanoma) was 17.6 µM, the TGI (MDA-MB-435 melanoma) was 32.7 µM and the GI50 (EKVX NSCLC) was 5.38 µM. It also gave a TGI (EKVX NSCLC) of 12.6 µM, a GI50 (SNB-19 CNS) of 15 µM and a TGI (SNB-19 CNS) of 28.4 µM. It also gave a GI50 (HOP-92 NSCLC) of 5.92 µM, a TGI (HOP-92 NSCLC) of 14 µM and a GI50 (MALME-3M melanoma) of 7.69 µM. It also gave a TGI (MALME-3M melanoma) of 19.6 µM, a GI50 (COLO 205 colon) of 3.35 µM and a TGI (COLO 205 colon) of 4.86 µM. For the same compound, the GI50 (SK-MEL-28 melanoma) was 12.3 µM and the TGI (SK-MEL-28 melanoma) was 17.8 µM.
